Measured values reported in patent publication US10787436B2, “Inhibitors of cyclin-dependent kinase 7 (CDK7)” (Dana-Farber Cancer Institute, Inc., priority 2012, dated 2020).

Each compound was assayed against MLK3 (Homo sapiens (Human), UniProt Q16584) (assay: Life Technologies LanthaScreen Eu kinase assay, MLK3). Details: superscript b (footnote not given; tested at 100 nM and 1 μM).
Format: binding

Sequence of MLK3 (Q16584 whole entry): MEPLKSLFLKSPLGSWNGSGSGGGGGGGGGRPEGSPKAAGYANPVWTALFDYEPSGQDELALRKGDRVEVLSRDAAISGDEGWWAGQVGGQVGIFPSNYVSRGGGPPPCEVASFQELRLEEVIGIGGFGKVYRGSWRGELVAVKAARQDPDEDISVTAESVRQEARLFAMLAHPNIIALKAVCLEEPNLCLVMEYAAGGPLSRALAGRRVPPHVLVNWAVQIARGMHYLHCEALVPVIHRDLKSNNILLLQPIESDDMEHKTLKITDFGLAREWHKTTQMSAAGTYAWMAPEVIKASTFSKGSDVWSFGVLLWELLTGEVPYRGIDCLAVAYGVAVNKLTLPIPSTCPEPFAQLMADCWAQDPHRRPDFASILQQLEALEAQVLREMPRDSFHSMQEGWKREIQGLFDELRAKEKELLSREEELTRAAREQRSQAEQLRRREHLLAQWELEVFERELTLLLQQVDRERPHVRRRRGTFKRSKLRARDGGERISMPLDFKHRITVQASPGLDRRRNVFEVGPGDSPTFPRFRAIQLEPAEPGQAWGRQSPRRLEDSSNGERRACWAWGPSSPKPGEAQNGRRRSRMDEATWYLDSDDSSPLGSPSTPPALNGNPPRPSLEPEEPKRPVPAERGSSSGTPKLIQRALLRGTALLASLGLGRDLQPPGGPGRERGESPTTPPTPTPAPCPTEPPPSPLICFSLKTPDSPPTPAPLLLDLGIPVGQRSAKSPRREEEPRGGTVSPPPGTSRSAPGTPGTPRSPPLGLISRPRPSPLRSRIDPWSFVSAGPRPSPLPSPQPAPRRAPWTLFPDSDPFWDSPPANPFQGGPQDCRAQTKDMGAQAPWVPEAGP

| Percent inhibition, MLK3^b | SMILES |
| --- | --- |
| C (less than 50% inhibition) | Cc1ccc(Nc2ncc(C#N)c(-c3c[nH]c4ccccc34)n2)cc1NC(=O)c1ccc(NC(=O)/C=C/CN(C)C)cc1 [Formula I-56, (E)-N-(5-(5-cyano-4-(1H-indol-3-yl)pyrimidin-2-ylamino)-2-methylphenyl)-4-(4-(dimethylamino)but-2-enamido)benzamide] |
| C (less than 50% inhibition) | CN(C)C/C=C/C(=O)Nc1ccc(C(=O)N(C)c2cccc(Nc3ncc(Cl)c(-c4c[nH]c5ccccc45)n3)c2)cc1 [Formula I-57, (E)-N-(3-(5-chloro-4-(1H-indol-3-yl)pyrimidin-2-ylamino)phenyl)-4-(4-(dimethylamino)but-2-enamido)-N-methylbenzamide] |

What follows are compounds tested on Jurkat (assay: Jurkat (proliferation, CellTiter-Glo)). Details: Homo sapiens, Jurkat; read-out: Calculated IC50, Jurkat.
Format: cell-based

| IC50 | SMILES |
| --- | --- |
| 100 to 1000 nM | CN(C)C/C=C/C(=O)Nc1ccc(S(=O)(=O)Nc2cccc(Nc3ncc(Cl)c(-c4c[nH]c5ccccc45)n3)c2)cc1 [Formula I-52, (E)-N-(4-(N-(3-(5-chloro-4-(1H-indol-3-yl)pyrimidin-2-ylamino)phenyl)sulfamoyl)phenyl)-4-(dimethylamino)but-2-enamide] |
| 100 to 1000 nM | CN(C)C/C=C/C(=O)Nc1ccc(S(=O)(=O)Nc2cccc(Nc3ncc(C#N)c(-c4c[nH]c5ccccc45)n3)c2)cc1 [Formula I-55, (E)-N-(4-(N-(3-(5-cyano-4-(1H-indol-3-yl)pyrimidin-2-ylamino)phenyl)sulfamoyl)phenyl)-4-(dimethylamino)but-2-enamide] |
| < 100 nM | Cc1ccc(Nc2ncc(C#N)c(-c3c[nH]c4ccccc34)n2)cc1NC(=O)c1ccc(NC(=O)/C=C/CN(C)C)cc1 [Formula I-56, (E)-N-(5-(5-cyano-4-(1H-indol-3-yl)pyrimidin-2-ylamino)-2-methylphenyl)-4-(4-(dimethylamino)but-2-enamido)benzamide] |
| ≥ 1000 nM | CN(C)C/C=C/C(=O)Nc1ccc(C(=O)N(C)c2cccc(Nc3ncc(Cl)c(-c4c[nH]c5ccccc45)n3)c2)cc1 [Formula I-57, (E)-N-(3-(5-chloro-4-(1H-indol-3-yl)pyrimidin-2-ylamino)phenyl)-4-(4-(dimethylamino)but-2-enamido)-N-methylbenzamide] |

The compounds below were run against CDK7 (Homo sapiens (Human), UniProt P50613) (assay: In vitro inhibitory activity against CDK7 (Table 1)). Details: not given.
Format: biochemical
Method: In vitro kinase assays with immunoprecipitated proteins (or recombinant CAK complexes) were performed as follows. Kinase reactions were performed in 25 μL of final volume of reaction buffer (50 mM Hepes, pH 7.5, 150 mM NaCl, 10 mM MgCl2, 5% glycerol, 25 μM ATP, and 10 μCi of [γ-32P]ATP). Each reaction contained 1 μg of RNAP II. Incubation was at 30° C. for 30-45 min. Reactions were terminated by addition of 5 μL of 5×SDS-PAGE sample buffer and incubated at 95° C. for 5 min. Reactions were analyzed by SDS-PAGE, and the dried gel was exposed to film or PhosphorImager plate.

Sequence of CDK7 (P50613 whole entry, looked up): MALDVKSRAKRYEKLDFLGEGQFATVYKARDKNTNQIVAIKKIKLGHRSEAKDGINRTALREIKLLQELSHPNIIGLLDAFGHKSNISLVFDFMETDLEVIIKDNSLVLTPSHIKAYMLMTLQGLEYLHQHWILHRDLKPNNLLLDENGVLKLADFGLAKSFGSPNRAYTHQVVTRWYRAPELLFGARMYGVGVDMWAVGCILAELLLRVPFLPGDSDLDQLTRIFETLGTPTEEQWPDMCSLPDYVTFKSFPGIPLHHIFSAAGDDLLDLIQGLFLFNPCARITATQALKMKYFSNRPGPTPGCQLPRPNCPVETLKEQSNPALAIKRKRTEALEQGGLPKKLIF
Sequence of CDK7 (P51946 whole entry partner, looked up): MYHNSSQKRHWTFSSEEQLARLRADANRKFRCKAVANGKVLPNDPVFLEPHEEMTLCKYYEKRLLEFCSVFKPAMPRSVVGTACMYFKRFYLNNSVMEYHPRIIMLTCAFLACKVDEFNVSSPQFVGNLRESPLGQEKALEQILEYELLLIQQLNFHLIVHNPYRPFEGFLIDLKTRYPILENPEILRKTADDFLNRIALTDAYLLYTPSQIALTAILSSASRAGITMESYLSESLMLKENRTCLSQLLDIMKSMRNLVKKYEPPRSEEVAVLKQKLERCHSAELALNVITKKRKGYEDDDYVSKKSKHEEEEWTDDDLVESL
Sequence of CDK7 (P51948 whole entry partner, looked up): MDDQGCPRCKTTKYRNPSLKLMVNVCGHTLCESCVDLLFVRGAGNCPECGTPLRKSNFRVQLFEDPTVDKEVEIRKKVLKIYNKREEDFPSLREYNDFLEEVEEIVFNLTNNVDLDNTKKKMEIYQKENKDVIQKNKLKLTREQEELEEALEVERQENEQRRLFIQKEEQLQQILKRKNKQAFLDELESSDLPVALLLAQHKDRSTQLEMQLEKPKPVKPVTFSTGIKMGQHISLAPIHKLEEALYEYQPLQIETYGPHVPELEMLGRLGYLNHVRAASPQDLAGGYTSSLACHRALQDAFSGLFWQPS

| SMILES | IC50 |
| --- | --- |
| Cc1ccc(NC(=O)c2ccc(NC(=O)/C=C/CN(C)C)cc2)cc1Nc1ncc(Cl)c(-c2c[nH]c3ccccc23)n1 [Formula I-22] | 32.6 nM |
| C=CC(=O)Nc1ccc(C(=O)Nc2cccc(Nc3ncc(Cl)c(-c4c[nH]c5ccccc45)n3)c2)cc1 [Formula I-24] | 40 nM |
| CN(C)C/C=C/C(=O)Nc1ccc(C(=O)Nc2ccc(Cl)c(Nc3ncc(Cl)c(-c4c[nH]c5ccccc45)n3)c2)cc1 [Formula I-25] | 87.8 nM |
| CN(C)C/C=C/C(=O)Nc1ccc(C(=O)Nc2cccc(Nc3ncc(Cl)c(-n4cnc5ccccc54)n3)c2)cc1 [Formula I-27] | 201 nM |
| CN(C)C/C=C/C(=O)Nc1ccc(C(=O)Nc2cccc(Nc3ncc(Cl)c(-c4cnc5[nH]ccc5c4)n3)c2)cc1 [Formula I-29] | 288 nM |
| CN(C)C/C=C/C(=O)Nc1ccc(C(=O)Nc2cccc(Nc3ncc(Cl)c(-c4ccc5cc[nH]c5c4)n3)c2)cc1 [Formula I-32] | 1180 nM |
| CN(C)C/C=C/C(=O)Nc1ccc(C(=O)Nc2cccc(Nc3ncc(Cl)c(-c4cc5ccccc5[nH]4)n3)c2)cc1 [Formula I-34] | 4750 nM |
| CCSC(=O)CCNc1ccc(C(=O)Nc2cccc(Nc3ncc(Cl)c(-c4c[nH]c5ccccc45)n3)c2)cc1 [Formula I-37] | 557 nM |
| CN(C)C/C=C/C(=O)Nc1ccc(C(=O)Nc2cccc(Nc3ncc(Cl)c(-c4c(-c5ccccc5)nn5ccccc45)n3)c2)cc1 [Formula I-38] | 3010 nM |
| Cc1cccc2[nH]cc(-c3ccnc(Nc4cccc(NC(=O)c5ccc(NC(=O)/C=C/CN(C)C)cc5)c4)n3)c12 [Formula I-40] | 3470 nM |
| Cc1cnc(Nc2cccc(NC(=O)c3ccc(NC(=O)/C=C/CN(C)C)cc3)c2)nc1-c1c[nH]c2cccc(C)c12 [Formula I-41] | 809 nM |
| Cc1nc(C)c(-c2nc(Nc3cccc(NC(=O)c4ccc(NC(=O)/C=C/CN(C)C)cc4)c3)ncc2Cl)s1 [Formula I-50] | 92.3 nM |

The remaining lines, values ahead:

| IC50 | SMILES |
| --- | --- |
| 13.9 nM | CN(C)C/C=C/C(=O)Nc1cccc(C(=O)Nc2cccc(Nc3ncc(Cl)c(-c4c[nH]c5ccccc45)n3)c2)c1 [Formula I-18] |
| 15.7 nM | Cc1cnc(Nc2cccc(NC(=O)c3ccc(NC(=O)/C=C/CN(C)C)cc3)c2)nc1-c1c[nH]c2ccccc12 [Formula I-19] |
| 22.7 nM | CCc1cnc(Nc2cccc(NC(=O)c3ccc(NC(=O)/C=C/CN(C)C)cc3)c2)nc1-c1c[nH]c2ccccc12 [Formula I-21] |
| 184 nM | CN(C)C/C=C/C(=O)Nc1ccc(C(=O)Nc2cccc(Nc3ncc(C4CC4)c(-c4c[nH]c5ccccc45)n3)c2)cc1 [Formula I-26] |
| 238 nM | CN(C)C/C=C/C(=O)Nc1ccc(C(=O)Nc2cccc(Nc3ncc(Cl)c(-c4cn(C)c5ccccc45)n3)c2)cc1 [Formula I-28] |
| 347 nM | CN(C)C/C=C/C(=O)Nc1ccc(C(=O)Nc2cccc(Nc3ncc(Cl)c(-c4cccc5[nH]ccc45)n3)c2)cc1 [Formula I-30] |
| 416 nM | CN(C)C/C=C/C(=O)Nc1ccc(C(=O)Nc2cccc(Nc3ncc(Cl)c(-c4cccc5[nH]ccc45)n3)c2)cc1 [Formula I-31] |
| 1420 nM | CN(C)C/C=C/C(=O)Nc1ccc(C(=O)Nc2cccc(Nc3nc(-c4c[nH]c5ccccc45)c4ccccc4n3)c2)cc1 [Formula I-33] |
| 1350 nM | Cc1nc(Nc2cccc(NC(=O)c3ccc(NC(=O)/C=C/CN(C)C)cc3)c2)nc(-c2c[nH]c3ccccc23)c1C [Formula I-39] |
| 35.7 nM | CN(C)C/C=C/C(=O)Nc1ccc(C(=O)Nc2cccc(Nc3ncc(C(F)(F)F)c(-c4c[nH]c5ccccc45)n3)c2)cc1 [Formula I-42] |
| 36.2 nM | CN(C)C/C=C/C(=O)NCc1ccc(C(=O)Nc2cccc(Nc3ncc(Cl)c(-c4c[nH]c5ccccc45)n3)c2)cc1 [Formula I-43] |
| 391 nM | CN(C)C/C=C/C(=O)Nc1ccc(C(=O)Nc2cccc(Nc3nccc(-c4c[nH]c5ccccc45)n3)c2)cc1 [Formula I-44] |

What follows are compounds tested against IRAK1 (Homo sapiens (Human), UniProt P51617) (assay: Life Technologies Adapta kinase assay, IRAK1). Details: superscript b (footnote not given; tested at 100 nM and 1 μM).
Format: biochemical

Sequence of IRAK1 (P51617 whole entry): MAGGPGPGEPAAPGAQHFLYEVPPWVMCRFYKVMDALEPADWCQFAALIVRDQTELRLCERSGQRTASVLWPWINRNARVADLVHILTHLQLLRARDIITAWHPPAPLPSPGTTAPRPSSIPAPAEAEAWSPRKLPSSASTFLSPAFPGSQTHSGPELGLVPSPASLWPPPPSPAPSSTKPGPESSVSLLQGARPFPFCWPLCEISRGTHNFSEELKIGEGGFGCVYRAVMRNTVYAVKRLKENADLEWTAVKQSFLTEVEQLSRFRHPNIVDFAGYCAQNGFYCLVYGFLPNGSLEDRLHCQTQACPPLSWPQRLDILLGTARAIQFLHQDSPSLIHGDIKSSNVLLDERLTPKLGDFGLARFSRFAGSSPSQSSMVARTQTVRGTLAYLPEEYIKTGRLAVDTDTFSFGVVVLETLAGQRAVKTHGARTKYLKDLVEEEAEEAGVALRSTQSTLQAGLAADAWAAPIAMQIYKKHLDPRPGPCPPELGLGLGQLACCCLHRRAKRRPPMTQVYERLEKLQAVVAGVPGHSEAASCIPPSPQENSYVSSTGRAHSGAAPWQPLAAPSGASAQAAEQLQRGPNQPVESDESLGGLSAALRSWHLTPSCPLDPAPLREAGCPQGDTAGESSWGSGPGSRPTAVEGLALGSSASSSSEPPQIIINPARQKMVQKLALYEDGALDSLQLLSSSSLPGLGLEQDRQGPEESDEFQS

| Percent inhibition, IRAK1^b | SMILES |
| --- | --- |
| C (less than 50% inhibition) | Cc1ccc(Nc2ncc(C#N)c(-c3c[nH]c4ccccc34)n2)cc1NC(=O)c1ccc(NC(=O)/C=C/CN(C)C)cc1 [Formula I-56, (E)-N-(5-(5-cyano-4-(1H-indol-3-yl)pyrimidin-2-ylamino)-2-methylphenyl)-4-(4-(dimethylamino)but-2-enamido)benzamide] |
| C (less than 50% inhibition) | CN(C)C/C=C/C(=O)Nc1ccc(C(=O)N(C)c2cccc(Nc3ncc(Cl)c(-c4c[nH]c5ccccc45)n3)c2)cc1 [Formula I-57, (E)-N-(3-(5-chloro-4-(1H-indol-3-yl)pyrimidin-2-ylamino)phenyl)-4-(4-(dimethylamino)but-2-enamido)-N-methylbenzamide] |
